According to USRE42013E1, “Macrocyclic modulators of the ghrelin receptor” (Tranzyme Pharma Inc., priority 2003, dated 2010):
Read-outs that look alike come from different tables or passages of the source.

Tests used:
[1] = test system: gastric emptying in fasted rats; experiment: Gastric emptying in fasted rats (phenol red methylcellulose meal); assay type: in vivo, rat (Wistar)
Experimental: To examine the effects of compounds of the invention in a model for gastroparesis, compounds were evaluated for possible effects on gastric emptying in fasted rats.
GHRP-6 and test samples were dissolved in vehicle of 9% HPBCD/0.9% NaCl. Immediately following oral administration of methylcellulose (2%) containing phenol red (0.05%) (2 mL/rat), test substances or vehicle (9% HPBCD/0.9% NaCl) were each administered intravenously (i.v.) at a dosing volume of 5 mL/kg.
Male Wistar rats were provided by LASCO (A Charles River Licensee Corporation, Taiwan). Space allocation for 6 animals was 45×23×15 cm. Animals were housed in APEC® cages and maintained in a controlled temperature (22° C.-24° C.) and humidity (60%-80%) environment with 12 h light, 12 h dark cycles for at least one week in the laboratory prior to being used. Free access to standard lab chow for rats (Lab Diet, Rodent Diet, PMI Nutrition International, USA) and tap water was granted. All aspects of this work including housing, experimentation and disposal of animals were performed in general accordance with the Guide for the Care and Use of Laboratory Animals (National Academy Press, Washington, D.C., 1996).
Test substances were each administered intravenously to a group of 5 O/N-fasted Wistar derived male rats weighing 200±20 g immediately after methylcellulose (2%) containing phenol red (0.05%) was administered orally at 2 mL/animal. […] Following protein precipitation by 20% trichloroacetic acid (0.5 mL) and re-alkalization of the supernatant with 0.1 N NaOH, total phenol red remaining in the stomach was determined by a colorimetric method at 560 nm. A 30 percent or more (≧30%) increase in gastric emptying, detected as the decrease in phenol red concentration in the stomach relative to the vehicle control group, is considered significant.
• 1. […] Total phenol red remaining in the stomach was quantified by a colorimetric method at 560 nm. • 5. A >30% increase in gastric emptying, detected based on the phenol red concentration in comparison to the control group, is considered significant. […]

[2] = target: human ghrelin receptor (hGHS-R1a) (Homo sapiens, UniProt Q92847); settings: Table 4; functional (agonist) activity at human ghrelin receptor; TFA salts unless otherwise noted
Source text: B. Aequorin Functional Assay (Ghrelin Receptor)
This cell line is typically constructed by transfection of the human ghrelin receptor into CHO-K1 cells co-expressing Gα16 and the mitochondrially targeted Aequorin (Ref #ES-WT-A5). • 1. […] Assay buffer: DMEM (Dulbecco's Modified Eagles Medium) containing 0.1% BSA (bovine serum albumin; pH 7.0). • 3. Coelenterazine (Molecular Probes, Leiden, The Netherlands). Final test concentrations (N=8) for compounds of the invention: 10, 1, 0.3, 0.1, 0.03, 0.01, 0.003, 0.001 μM. Compound Handling
Assay plates were then prepared by appropriate dilution in DMEM medium containing 0.1% BSA. Under these conditions, the maximal final DMSO concentration in the assay was <0.6%.
AequoScreen™ cells were collected from culture plates with Ca^2+ and Mg^2+-free phosphate buffered saline (PBS) supplemented with 5 mM EDTA, pelleted for 2 min at 1000×g, re-suspended in DMEM—Ham's F12 containing 0.1% BSA at a density of 5×10^6 cells/mL, and incubated O/N at rt in the presence of 5 μM coelenterazinc. After loading, cells were diluted with assay buffer to a concentration of 5×10^5 cells/mL.
For agonist testing, 50 μL of the cell suspension was mixed with 50 μL of the appropriate concentration of test compound or ghrelin (reference agonist) in 96-well plates (duplicate samples). Ghrelin (reference agonist) was tested at several concentrations concurrently with the test compounds in order to validate the experiment. The emission of light resulting from receptor activation in response to ghrelin or test compounds was recorded using the Hamamatsu FDSS 6000 reader (Hamamatsu Photonics K.K., Japan).
Analysis and Expression of Results
Results were expressed as Relative Light Units (RLU). […] EC50, Hill slope and % Emax values are reported.
Key Aspects of Method • 1. Assay performed on CHO-K1 cells expressing the transfected, cloned human ghrelin receptor (hGHS-R1a) and Gα16. • 2. Suspended cells incubated O/N with coelenterazine. • 3. Stimulation of hGHS-R1a activates Gα16, causing intercellular Ca2+ release which ultimately leads to the oxidation of coelenterazine and the emission of a quantitative luminescent signal. • 4. Ghrelin was used as the positive control. • 5.

[3] = from CCC[C@@H](C(=O)N(C)[C@H](C)C(=O)N[C@H](Cc1ccccc1)C(=O)O)N(C[C@@H](C)Oc1ccccc1CCCN)C(=O)OC(C)(C)C; amide bond; DEPBT; THF; 25.0 mM; 25.0 °C; 16.0 h
[4] = target: T1, human growth hormone secretagogue receptor (hGHS-R1a) (Homo sapiens, UniProt Q92847); experiment: Competitive radioligand binding assay (ghrelin receptor), [125I]-ghrelin displacement; settings: read-out: Ki
T1 construct: purchased PerkinElmer BioSignal #RBHGHSM, lot#1887; host or cells: HEK-293, stably transfected

[5] = test system: morphine-treated rats; experiment: Gastric emptying and gastrointestinal transit in model of opioid-delayed gastric emptying; assay type: in vivo, rat (Sprague-Dawley); settings: 3 mg/kg s.c.
Source text: 7. The Effect of Compounds of the Invention on Gastric Emptying and Gastrointestinal Transit in a Model of Opioid-Delayed Gastric Emptying
Opioid analgesics, such as morphine, are well known to delay gastrointestinal transit which is an important side-effect for this class of drugs. The clinical term for this syndrome is opioid bowel dysfunction (OBD). Importantly, patients recovering from abdominal surgery experience post-operative ileus that is further exacerbated by concomitant opioid therapy for post-surgical pain.
• 1. […] Methods • 1. Rats (male, Sprague-Dawley, 250-300 g) are implanted with jugular vein catheters to accommodate dosing of test articles. • 2. Overnight-fasted rats are administered morphine (3 mg/kg s.c.). • 3. […] Radioactivity (^99mTc) in each tissue isolate is measured as a means of measuring the transit of the meal. Results

[6] = Table 3C, binding activity at the human ghrelin receptor, class symbols
[7] = Table 4, binding at human ghrelin receptor, TFA salts unless otherwise noted

T1 sequence (Q92847 whole entry): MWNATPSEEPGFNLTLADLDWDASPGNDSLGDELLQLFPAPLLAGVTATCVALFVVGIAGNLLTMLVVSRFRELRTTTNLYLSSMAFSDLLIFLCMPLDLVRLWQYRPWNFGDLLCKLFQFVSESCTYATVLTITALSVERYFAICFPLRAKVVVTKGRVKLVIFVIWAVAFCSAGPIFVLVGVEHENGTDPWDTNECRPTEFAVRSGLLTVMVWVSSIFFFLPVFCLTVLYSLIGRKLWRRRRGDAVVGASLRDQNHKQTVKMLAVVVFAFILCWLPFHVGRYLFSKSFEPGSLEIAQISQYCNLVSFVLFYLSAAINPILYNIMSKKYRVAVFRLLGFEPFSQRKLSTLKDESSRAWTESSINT
Sequence of human ghrelin receptor (hGHS-R1a) (Q92847 whole entry): as above

In the case of `CCC(C)C1NCCOc2ccccc2CCCNC(=O)C(Cc2ccc(Cl)cc2)NC(=O)C(C)N(C)C1=O` (stereo not shown) [compound 25], the gastric emptying ([1]; 30 μg/kg) is reported as “demonstrated gastric emptying”, the “increase in gastric emptying relative to the vehicle control group” value ([1]; 100 μg/kg i.v., fasted rats, 15 min) is reported as 39% and the EC50 [2] is reported as 0.001 to 0.1 µM.
Work on `CCC[C@H]1C(=O)N(C)[C@H](C)C(=O)N[C@H](Cc2ccccc2)C(=O)NCCCc2ccccc2O[C@H](C)CN1C(=O)OC(C)(C)C` yielded a ring closure, yield of all isomers [3] of 80%.
For `CCN(CC)CCNC(=O)c1cc(Cl)c(N)cc1OC` [metoclopramide, Metoclopramide, reference compound], the “gastric emptying of a solid meal in naïve rat” value ([1]; i.v. immediately after meal, 15 min) was “significant gastric emptying”.
`C[C@H]1NC(=O)C2(CCCC2)NCCOc2ccccc2C=CCNC(=O)[C@H](Cc2cccc(Cl)c2)NC1=O` (stereo in doubt) [compound 351] showed a Ki [4, 6] of 0.01 to 0.1 µM, a Ki [4, 7] of 0.01 to 0.1 µM and an EC50 [2] of 0.001 to 0.1 µM.
For `CN1CC[C@]23c4c5ccc(O)c4O[C@H]2[C@@H](O)C=C[C@H]3[C@H]1C5` [Morphine], the “gastric emptying and intestinal transit” value [5] was “significantly delayed gastric emptying and intestinal transit”.
In the case of `O=C1NC/C=C/c2ccccc2OCCNC2(CCCC2)C(=O)NC2(CCCC2)C(=O)N[C@H]1Cc1ccccc1` [compound 18], the Ki [4, 6] is reported as 0.01 to 0.1 µM, the Ki [4, 7] is reported as 0.01 to 0.1 µM and the Ki ([4]; binding activity at the human ghrelin receptor, [125I]-ghrelin displacement, hGHS-R1a/HEK-293 membranes) is reported as 0.01 to 0.1 µM. For the same compound, the EC50 [2] was 0.001 to 0.1 µM.
